Like-named read-outs stand apart in the source and are kept apart here.

For series [1], the target named is T1, cross-linking of glycated bovine serum albumin (AGE-BSA) to the rat tail tendon collagen (Bos taurus, UniProt P02769).
T1 construct: The AGE-BSA was prepared by incubating BSA at a concentration of 200 mg per ml with 200 mM glucose
Briefly: Inhibition of cross-linking of glycated BSA (AGE-BSA) to collagen-coated plate, ELISA (Example 4). Format: biochemical. To be noted: for inhibition at 10000 µM: 4 h. The method, then: The following method was used to evaluate the ability of the compounds of the present invention to inhibit the cross-linking of glycated bovine serum albumin (AGE-BSA) to the rat tail tendon collagen coated 96-well plate.
The glycated BSA was then extensively dialyzed against phosphate buffer solution (PBS) for 48 hours with additional 5 times buffer exchanges. […] The blocking solution was removed from the wells by washing the plate twice with PAS-Tween 20 solution (0.05% Tween 20) using a NUNC-multiprobe or Dynatech ELISA-plate washer. […] The unbrowned BSA in PBS buffer with or without testing compound were added to the separate wells as the blanks. The uncross-linked AGE-BSA was then removed by washing the wells three times with PBS-Tween buffer. The cross-linked AGE-BSA to the tail tendon coated plate was then quantitated by the polyclonal antibody raised against AGE-RNase. After a one-hour incubation period, AGE antibody was removed by washing 4 times with PBS-Tween.
The bound AGE antibody was then detected with the addition of horseradish peroxidase-conjugated secondary antibody, e.g., goat anti-rabbit immunoglobulin and incubation for 30 minutes. […] The reaction was allowed for an additional 15 minutes and the absorbance was read at 410 nm in a Dynatech plate reader.
For orientation: ELISA stands for enzyme-linked immunosorbent assay.

Series [2] in a line: Inhibition of ribose-induced cross-linking of N-acetyl glycyl-lysine methyl ester, fluorescence (Example 5). In kind it is biochemical. The conditions noted are these: 37°C, 16-24 hours, pH 7.4; fluorescence 350/400 nm. As to the method:
Materials: • N-acetylglycyllysine methyl ester (DP in formula below) • Ribose (R in formula below) • Test compounds (C in formula below)
Reagents: • 0.5 M sodium phosphate buffer pH 7.4 • N-acetylglycyllysine methyl ester in 0.5M sodium phosphate buffer, pH 7.4 Ribose: 800 mM
Test compounds dissolved in the above buffer and the pH is adjusted to 7.4, if necessary
Reaction mixtures are prepared as follows:
and incubated at 37°C for 16-24 hours. At the end of the incubation period, the fluorescence is read using an excitation wavelength of 350 nm and emission wavelength of 400 nm. The inhibition of the cross-linking is calculated from the decrease in the fluorescence in the presence of the test compounds according to the formula: […] [formula]
The Inhibition by various test compounds (IC50) is as follows: […]

In series [3] the target is T2, AGE-BSA previously crosslinked to the collagen (Bos taurus, UniProt P02769).
T2 construct: purchased Calbiochem (BSA Type V); Collaborative Biomedical Products (Biocoat collagen plates)
T2 sequence (P02769 25-607): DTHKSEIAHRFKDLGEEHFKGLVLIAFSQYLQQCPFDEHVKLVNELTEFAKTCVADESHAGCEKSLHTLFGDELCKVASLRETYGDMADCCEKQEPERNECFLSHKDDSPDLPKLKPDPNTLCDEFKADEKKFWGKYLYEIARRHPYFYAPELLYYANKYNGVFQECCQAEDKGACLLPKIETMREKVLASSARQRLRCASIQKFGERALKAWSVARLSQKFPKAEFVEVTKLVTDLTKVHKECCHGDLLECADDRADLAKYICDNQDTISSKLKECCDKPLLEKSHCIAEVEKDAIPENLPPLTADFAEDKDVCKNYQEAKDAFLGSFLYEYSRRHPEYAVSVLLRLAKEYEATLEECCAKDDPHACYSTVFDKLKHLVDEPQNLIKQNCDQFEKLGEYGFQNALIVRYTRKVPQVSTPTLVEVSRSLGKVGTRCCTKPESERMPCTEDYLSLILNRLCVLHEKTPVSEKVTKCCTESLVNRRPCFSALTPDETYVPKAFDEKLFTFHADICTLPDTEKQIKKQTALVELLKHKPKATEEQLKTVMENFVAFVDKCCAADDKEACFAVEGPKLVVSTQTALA
T2 sequence (P02454 152-1207 partner limits assumed): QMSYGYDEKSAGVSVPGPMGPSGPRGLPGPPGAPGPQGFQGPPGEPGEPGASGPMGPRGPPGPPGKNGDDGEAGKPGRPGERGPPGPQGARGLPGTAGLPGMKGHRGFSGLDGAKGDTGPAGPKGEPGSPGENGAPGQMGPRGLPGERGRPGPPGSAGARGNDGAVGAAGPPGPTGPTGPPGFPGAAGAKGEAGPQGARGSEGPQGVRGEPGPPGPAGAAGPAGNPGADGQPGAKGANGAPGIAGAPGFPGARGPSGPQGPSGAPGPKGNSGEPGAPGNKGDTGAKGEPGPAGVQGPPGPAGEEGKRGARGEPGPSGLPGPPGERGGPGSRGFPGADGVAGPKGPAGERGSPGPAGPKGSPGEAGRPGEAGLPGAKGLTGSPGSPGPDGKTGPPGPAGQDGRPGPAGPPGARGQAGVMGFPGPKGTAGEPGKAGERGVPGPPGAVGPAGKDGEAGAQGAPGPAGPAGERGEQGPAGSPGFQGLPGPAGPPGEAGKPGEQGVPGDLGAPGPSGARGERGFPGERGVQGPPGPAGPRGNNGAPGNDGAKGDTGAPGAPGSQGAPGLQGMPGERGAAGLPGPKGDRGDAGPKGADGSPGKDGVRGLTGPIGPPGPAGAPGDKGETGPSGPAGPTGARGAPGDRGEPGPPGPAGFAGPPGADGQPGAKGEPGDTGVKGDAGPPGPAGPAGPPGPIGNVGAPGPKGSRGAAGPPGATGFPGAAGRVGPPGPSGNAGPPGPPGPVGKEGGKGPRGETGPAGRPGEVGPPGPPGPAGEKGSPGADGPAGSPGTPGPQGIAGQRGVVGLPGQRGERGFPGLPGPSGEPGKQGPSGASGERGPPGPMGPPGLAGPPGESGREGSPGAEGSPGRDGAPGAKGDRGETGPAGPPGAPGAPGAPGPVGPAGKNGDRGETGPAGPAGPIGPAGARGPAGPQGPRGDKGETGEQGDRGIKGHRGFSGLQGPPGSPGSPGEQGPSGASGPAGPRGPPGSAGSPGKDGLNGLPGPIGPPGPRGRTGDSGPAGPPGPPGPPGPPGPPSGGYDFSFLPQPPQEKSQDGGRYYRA
T2 sequence (P02466 86-1125 partner limits assumed): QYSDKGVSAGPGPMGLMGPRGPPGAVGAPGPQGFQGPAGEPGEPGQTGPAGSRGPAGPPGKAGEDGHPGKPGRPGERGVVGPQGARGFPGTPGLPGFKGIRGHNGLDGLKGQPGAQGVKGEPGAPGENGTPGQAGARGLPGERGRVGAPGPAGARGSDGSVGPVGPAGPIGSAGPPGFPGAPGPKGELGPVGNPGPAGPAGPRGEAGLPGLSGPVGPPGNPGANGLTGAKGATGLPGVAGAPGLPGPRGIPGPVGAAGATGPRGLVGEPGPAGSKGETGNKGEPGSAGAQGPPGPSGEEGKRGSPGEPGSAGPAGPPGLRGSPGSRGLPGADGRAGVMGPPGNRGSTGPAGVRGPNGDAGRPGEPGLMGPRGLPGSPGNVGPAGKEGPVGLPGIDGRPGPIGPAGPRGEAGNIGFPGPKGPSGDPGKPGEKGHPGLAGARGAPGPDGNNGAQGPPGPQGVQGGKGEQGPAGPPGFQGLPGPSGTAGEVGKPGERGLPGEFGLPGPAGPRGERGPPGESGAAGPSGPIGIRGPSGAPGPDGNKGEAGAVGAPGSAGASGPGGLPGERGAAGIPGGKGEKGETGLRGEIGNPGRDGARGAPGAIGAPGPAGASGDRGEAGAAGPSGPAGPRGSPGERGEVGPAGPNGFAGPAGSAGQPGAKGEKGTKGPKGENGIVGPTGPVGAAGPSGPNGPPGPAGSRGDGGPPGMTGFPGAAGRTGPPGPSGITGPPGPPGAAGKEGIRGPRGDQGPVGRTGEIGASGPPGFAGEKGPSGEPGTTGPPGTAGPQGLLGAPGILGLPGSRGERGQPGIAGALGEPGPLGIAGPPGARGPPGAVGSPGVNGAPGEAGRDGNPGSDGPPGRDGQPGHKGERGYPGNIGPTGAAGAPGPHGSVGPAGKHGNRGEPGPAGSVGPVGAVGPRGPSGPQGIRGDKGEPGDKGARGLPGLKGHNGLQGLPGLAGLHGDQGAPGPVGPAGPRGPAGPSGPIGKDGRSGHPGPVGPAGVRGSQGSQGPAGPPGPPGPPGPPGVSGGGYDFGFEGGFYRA
Briefly: AGE cross-link breaking sandwich enzyme immunoassay (Example 6). In kind it is biochemical. The conditions noted are these: 10 mM, 16 hours, 37°C. As to the method:
In order to ascertain the ability of the compounds of the instant invention to "break" or reverse already formed advanced glycosylation endproducts, a novel sandwich enzyme immunoassay was developed which detects breaking of AGE (Advanced glycosylation endproduct) moieties from AGE-crosslinked protein. The assay utilizes collagen-coated 96 well microtiter plates that are obtained commercially. AGE-modified protein (AGE-BSA), prepared, for instance, as in Example 8, above, is incubated on the collagen-coated wells for four hours, is washed off the wells with PBS-Tween and solutions of the test compounds are added. Following an incubation period of 16 hours (37°C) cross-link-breaking is detected using an antibody raised against AGE-ribonuclease or with an antibody against BSA. Positive results in this assay indicate compounds that are capable of reducing the amount of AGE-BSA previously crosslinked to the collagen by breaking the crosslinks and allowing the liberated material to be flushed away in subsequent washing steps. Details of the assay are as follows:
• 1. AGE-BSA stock solutions were prepared as follows. Sodium phosphate buffer (0.4 M) was prepared by dissolving 6 grams of monobasic sodium phosphate in 100 ml of distilled water, 7 grams of dibasic sodium phosphate (0.4 M) in 100 ml of distilled water and adjusting the pH of the dibasic solution to 7.4 with the monobasic solution. Sodium azide (0.02 grams) was added per 100 ml volume to inhibit bacterial growth. The BSA solution was prepared as follows: 400 mg of Type V BSA (bovine serum albumin) was added for each ml of sodium phosphate buffer (above). A 400 mM glucose solution was prepared by dissolving 7.2 grams of dextrose in 100 ml of sodium phosphate buffer (above). The BSA and glucose solutions were mixed 1:1 and incubated at 37°C for 12 weeks. The pH of the incubation mixture was monitored weekly and adjusted to pH 7.4 if necessary. After 12 weeks, the AGE-BSA solution was dialyzed against PBS for 48 hours with four buffer changes, each at a 1:500 ratio of solution to dialysis buffer. Protein concentration was determined by the micro-Lowry method. The AGE-BSA stock solution was aliquoted and stored at -20°C. Dilute solutions of AGE-BSA were unstable when stored at -20°C. • 2. Working solutions for crosslinking and breaking studies were prepared as follows. Test compounds were dissolved in PBS and the pH was adjusted to pH 7.4 if necessary. AGE-BSA stock solution was diluted in PBS to measure maximum crosslinking. The concentration of AGE-BSA necessary to achieve the optimum sensitivity was determined by initial titration of each lot of AGE-BSA. • 3. Wash buffer ("PBS-Tween") was prepared as follows. PBS was prepared by dissolving the following salts in one liter of distilled water: NaCl, 8 grams; KCl, 0.2 gram, KH2PO4. 1.15 grams; NaN3, 0.2 gram. Tween-20 was added to a final concentration of 0.05% (vol/vol). • 4. Substrates for detection of secondary antibody binding were prepared by diluting the HRP substrate buffer 1:10 in distilled water and mixing with ABTS chromogen 1:50 just prior to use.
• 1. Biocoat plates were blocked with 300 µl of "Superbloc". Plates were blocked for one hour at room temperature and were washed with PBS-Tween three times with the Dynatech platewasher before addition of test reagents. • 2. Each experiment was set up in the following manner. The first three wells of the Biocoat plate were used for the reagent blank. Fifty microliters of solutions AGE-BSA were added to test wells in triplicate and only PBS in blank wells. The plate was incubated at 37°C for four hours and washed with PBS-Tween three times. Fifty microliters of PBS was added to the control wells and 50 µl of the test "AGE Cross-link breaker" compound was added to the test wells and blank. The plate was incubated overnight (approximately 16 hours) with the test "AGE Cross-link breaker" compound, followed by washing in PBS-Tween before addition of primary antibody (below). • 3. […]

The subject of series [4] is fixed protein (gelatin. i.e., collagen) surface. Briefly: Surface browning experiment on gelatin/paper disks (Example 10). The conditions noted are these: 100 Mm glucose-6-phosphate, one week at 50°C; Peridex at final 0.04% chlorhexidine. The method, then: To further study the ability of inhibitors of nonenzymatic browning to prevent the discoloration of protein on a surface, such as that which occurs on the tooth surface, the following surface browning experiment is performed. As a substitute for a pellicle-covered tooth surface. unexposed and developed photographic paper is used to provide a fixed protein (gelatin. i.e., collagen) surface on a paper backing. Five millimeter circles are punched and immersed for one week at 50°C in a solution of 100 Mm glucose-6-phosphate in a 0.5 M phosphate buffer, pH 7.4, containing 3 Mm sodium azide. Glucose-6-phosphate is a sugar capable of participating in nonenzymatic browning at a more rapid rate than glucose. In addition to the glucose-6-phosphate, chlorhexidine and/or a compound of Formula I are included. After incubation, the gelatin/paper disks are rinsed with water, observed for brown color, and photographed.

[5] abbreviates: pH 7.4, at 10 mM, 37°C, 4 hours, pH 7.4, read-out: %Inh.
Setting [6] is: primary antibody anti-AGE-RNase, read-out: %breaking allowed, Pr AbαAGE.
Where [7] appears, read: primary antibody anti-BSA, read-out: %breaking allowed, PrAbαBSA.

T1 sequence (P02769 25-607): as the sequence (P02769 25-607) above

With `CCOC(=O)CCCCCn1cc[n+](CC(=O)c2cccc(OC)c2)c1` [1-(ethoxycarbonylpentyl)-3-[2-(3'-methoxyphenyl)-2-oxoethyl]-imidazolium bromide], the inhibition at 10000 µM in series [1] (setting [5]) is 40%.

On to `CCOC(=O)CCCCCn1cc[n+](CC(=O)c2ccc(OC)cc2)c1` [1-(ethoxycarbonylpentyl)-3-[2-(4'-methoxyphenyl)-2-oxoethyl]-imidazolium bromide], for which the inhibition at 10000 µM in series [1] (setting [5]) came to 23%. Further, the “%Inh.” value in series [1] (at 10 mM, 37°C, 4 hours, pH 7.4, 240 min, 10000 µM) was found to be 40%.

As for `CCOC(=O)CCCCCn1cc[n+](CC(=O)c2ccc(C)cc2)c1` [1-(ethoxycarbonylpentyl)-3-[2-(4'-methylphenyl)-2-oxoethyl]-imidazolium bromide], the inhibition at 10000 µM in series [1] (setting [5]) was determined as 33%.

Usually IC50 stands for the concentration needed to halve the response being measured. As for `CCN(CC)c1ccc(C(=O)C[n+]2ccn(C)c2)cc1` [1-Methyl-3-[2-(4'-diethylaminophenyl)-2-oxo-ethyl]-imidazolium bromide], half-maximal inhibition in series [2] (IC50) required 530 µM. For the same compound, the inhibition at 10000 µM is 32% in series [3] (setting [6]) and 28% in series [3] (setting [7]).

For `COc1cccc(C(=O)C[n+]2ccn(C)c2)c1` [1-methyl-3-[2-(3'-methoxyphenyl)-2-oxoethyl]-imidazolium bromide], the inhibition at 10000 µM in series [3] (setting [6]) was 20%; in series [3] (setting [7]), 24%.

Take `Cn1cc[n+](CC(=O)c2ccc(Br)cc2)c1` [1-methyl-3-[2-(4'-bromophenyl)-2-oxoethyl]-imidazolium bromide]: in series [1] (pH 7.4, read-out: %Inh.), the inhibition at 10000 µM was found to be 23%.

`Cn1cc[n+](CC(=O)c2ccc(F)cc2)c1` [1-methyl-3-[2-(4'-fluorophenyl)-2-oxoethyl]-imidazolium bromide]: the inhibition at 10000 µM in series [1] (setting [5]) worked out at 29%.

For `COc1ccc(C(=O)C[n+]2ccn(C)c2)cc1` [1-methyl-3-[2-(4'-methoxyphenyl)-2-oxoethyl]-imidazolium bromide], the values for the inhibition at 10000 µM in series [3] (setting [6]) and in series [3] (setting [7]) were 38% and 27%, respectively.

As to `[H]/N=C(\N/C(=N/[H])NCCCCCCNC(=N)NC(=N)Nc1ccc(Cl)cc1)Nc1ccc(Cl)cc1` [chlorhexidine], the “brown color of gelatin/paper disks” value in series [4] is “significant browning”.

Values taken from patent publication EP1213282A1, “Substituted imidazolium salts and their use for the inhibition of protein ageing” (ALTEON Inc., priority 1996, dated 1997).
